Results as given in ChEMBL document CHEMBL1201862, “PubChem BioAssay data set” (2004).
Blank lines part the entries; values can stand above or below the molecule they belong to. Activity calls are given as the source filed them.

Key:
Assay type in all cases: functional
[1] = biological target: Tyrosine-protein kinase Fyn (Homo sapiens, UniProt P06241)
[2] = biological target: Ribosomal protein S6 kinase alpha-3 (Homo sapiens, UniProt P51812);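 note: measured within a kinome-wide profiling panel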
[3] = biological target: Mitogen-activated protein kinase kinase kinase kinase 2 (Homo sapiens, UniProt Q12851);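 note: measured as one member of a kinome-wide kinase panel, with MAP4K2 as the panel entry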
Mitogen-activated protein kinase kinase kinase kinase 2, sequence (Q12851 whole entry): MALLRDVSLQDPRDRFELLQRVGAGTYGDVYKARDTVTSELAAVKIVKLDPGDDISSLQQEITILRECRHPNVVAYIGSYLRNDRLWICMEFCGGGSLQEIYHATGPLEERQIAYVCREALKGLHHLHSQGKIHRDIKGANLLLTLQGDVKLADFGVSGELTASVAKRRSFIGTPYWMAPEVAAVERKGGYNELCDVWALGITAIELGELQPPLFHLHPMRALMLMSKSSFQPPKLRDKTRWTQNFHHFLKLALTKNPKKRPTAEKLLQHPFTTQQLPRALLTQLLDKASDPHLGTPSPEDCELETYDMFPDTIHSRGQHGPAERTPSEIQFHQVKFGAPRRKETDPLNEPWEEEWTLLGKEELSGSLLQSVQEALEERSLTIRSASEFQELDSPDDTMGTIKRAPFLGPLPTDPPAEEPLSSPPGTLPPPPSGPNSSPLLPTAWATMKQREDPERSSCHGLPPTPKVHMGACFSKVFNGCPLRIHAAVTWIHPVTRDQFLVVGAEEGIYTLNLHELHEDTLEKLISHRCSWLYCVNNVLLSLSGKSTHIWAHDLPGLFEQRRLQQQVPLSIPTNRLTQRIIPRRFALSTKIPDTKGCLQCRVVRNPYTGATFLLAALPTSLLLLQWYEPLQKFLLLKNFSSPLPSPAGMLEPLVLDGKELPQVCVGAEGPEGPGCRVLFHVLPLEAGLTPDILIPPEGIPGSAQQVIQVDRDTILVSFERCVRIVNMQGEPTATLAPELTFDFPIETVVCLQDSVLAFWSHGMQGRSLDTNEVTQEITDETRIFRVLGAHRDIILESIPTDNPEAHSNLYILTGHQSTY

[4] = biological target: Mitogen-activated protein kinase 9 (Homo sapiens, UniProt P45984);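 note: value from a kinome panel profiling assay, MAPK9 panel entry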
[5] = biological target: Proto-oncogene tyrosine-protein kinase receptor Ret (Homo sapiens, UniProt P07949);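 note: measured within a kinome-wide profiling panel, RET as the panel member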
Activated CDC42 kinase 1 = Activated CDC42 kinase 1 (Homo sapiens, UniProt Q07912); assay: Navigating the Kinome. Panel member name: ACK1
[6] = biological target: Dual specificity mitogen-activated protein kinase kinase 1 (Homo sapiens, UniProt Q02750); assay: Navigating the Kinome. Panel member name: MAP2K1
[7] = biological target: Vascular endothelial growth factor receptor 1 (Homo sapiens, UniProt P17948);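 note: measured within a kinome-wide profiling panel, FLT1 as the panel member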
[8] = biological target: cAMP-dependent protein kinase catalytic subunit PRKX (Homo sapiens, UniProt P51817)
[9] = biological target: Serine/threonine-protein kinase Chk1 (Homo sapiens, UniProt O14757);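 note: measured as one member of a kinome-wide kinase profiling panel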
[10] = biological target: Insulin-like growth factor 1 receptor (Homo sapiens, UniProt P08069); assay: Navigating the Kinome. Panel member name: IGF1R
[11] = biological target: Macrophage colony-stimulating factor 1 receptor (Homo sapiens, UniProt P07333);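 note: value comes from the Navigating the Kinome screening panel, CSF1R member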
[12] = biological target: Macrophage-stimulating protein receptor (Homo sapiens, UniProt Q04912); assay: Navigating the Kinome. Panel member name: MST1R
[13] = biological target: Hepatocyte growth factor receptor (Homo sapiens, UniProt P08581);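 note: kinase panel profiling across the kinome, with MET as the panel member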
[14] = biological target: Tyrosine-protein kinase ABL1 (Homo sapiens, UniProt P00519)
[15] = biological target: Mitogen-activated protein kinase 8 (Homo sapiens, UniProt P45983);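 note: value comes from one member of a kinome-wide kinase profiling panel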
[16] = biological target: Vascular endothelial growth factor receptor 2 (Homo sapiens, UniProt P35968)
[17] = biological target: Fibroblast growth factor receptor 1 (Homo sapiens, UniProt P11362)
[18] = biological target: ALK tyrosine kinase receptor (Homo sapiens, UniProt Q9UM73);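 note: ALK tested as one member of a kinase panel screen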
[19] = biological target: Receptor-type tyrosine-protein kinase FLT3 (Homo sapiens, UniProt P36888);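 note: FLT3 was tested as one member of a kinome-wide kinase panel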
Aurora kinase B = Aurora kinase B (Homo sapiens, UniProt Q96GD4)
[20] = biological target: Tyrosine-protein kinase receptor TYRO3 (Homo sapiens, UniProt Q06418);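 note: TYRO3 value obtained as one member of a kinome-wide profiling panel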
Tyrosine-protein kinase receptor TYRO3, sequence (Q06418 whole entry, the tested form may be a part): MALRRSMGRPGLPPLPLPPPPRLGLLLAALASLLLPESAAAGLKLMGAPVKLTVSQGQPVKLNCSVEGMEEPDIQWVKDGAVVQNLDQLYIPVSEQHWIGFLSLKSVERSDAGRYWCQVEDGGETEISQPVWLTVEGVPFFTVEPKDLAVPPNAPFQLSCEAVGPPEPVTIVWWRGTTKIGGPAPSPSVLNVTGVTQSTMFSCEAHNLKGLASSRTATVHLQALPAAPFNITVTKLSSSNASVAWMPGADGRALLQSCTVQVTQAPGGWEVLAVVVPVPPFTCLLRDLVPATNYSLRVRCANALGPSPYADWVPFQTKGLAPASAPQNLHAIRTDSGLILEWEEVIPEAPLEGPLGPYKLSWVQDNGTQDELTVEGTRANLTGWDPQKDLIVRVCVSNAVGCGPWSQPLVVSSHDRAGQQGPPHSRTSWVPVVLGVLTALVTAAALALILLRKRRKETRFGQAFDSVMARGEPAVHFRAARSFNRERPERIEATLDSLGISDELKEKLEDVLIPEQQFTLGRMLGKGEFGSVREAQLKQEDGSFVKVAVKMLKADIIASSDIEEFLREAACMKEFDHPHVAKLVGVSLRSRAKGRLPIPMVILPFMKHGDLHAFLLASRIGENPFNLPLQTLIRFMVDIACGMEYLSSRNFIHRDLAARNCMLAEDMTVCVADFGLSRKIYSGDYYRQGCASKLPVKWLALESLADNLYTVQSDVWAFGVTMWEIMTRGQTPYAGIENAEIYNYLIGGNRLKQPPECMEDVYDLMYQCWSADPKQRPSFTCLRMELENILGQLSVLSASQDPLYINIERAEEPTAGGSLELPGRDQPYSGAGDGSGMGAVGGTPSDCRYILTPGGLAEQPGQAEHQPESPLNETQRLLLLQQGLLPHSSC

LIM domain kinase 1 = LIM domain kinase 1 (Homo sapiens, UniProt P53667); assay: Navigating the Kinome. Panel member name: LIMK1
[21] = biological target: Mitogen-activated protein kinase kinase kinase kinase 4 (Homo sapiens, UniProt O95819)
[22] = biological target: Dual specificity tyrosine-phosphorylation-regulated kinase 1A (Homo sapiens, UniProt Q13627);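 note: measured against DYRK1A as one member of a broad kinome profiling panel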
[23] = biological target: Glycogen synthase kinase-3 beta (Homo sapiens, UniProt P49841);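 note: value comes from a broad kinome profiling panel, with GSK3B as the panel member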
[24] = biological target: Protein kinase C theta type (Homo sapiens, UniProt Q04759); assay: Navigating the Kinome. Panel member name: PRKCQ
[25] = biological target: BDNF/NT-3 growth factors receptor (Homo sapiens, UniProt Q16620);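 note: NTRK2 measured as one member of a broad kinome-wide kinase profiling panel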
[26] = biological target: Serine/threonine-protein kinase TBK1 (Homo sapiens, UniProt Q9UHD2); assay: Navigating the Kinome. Panel member name: TBK1
Serine/threonine-protein kinase TBK1, sequence (Q9UHD2 whole entry): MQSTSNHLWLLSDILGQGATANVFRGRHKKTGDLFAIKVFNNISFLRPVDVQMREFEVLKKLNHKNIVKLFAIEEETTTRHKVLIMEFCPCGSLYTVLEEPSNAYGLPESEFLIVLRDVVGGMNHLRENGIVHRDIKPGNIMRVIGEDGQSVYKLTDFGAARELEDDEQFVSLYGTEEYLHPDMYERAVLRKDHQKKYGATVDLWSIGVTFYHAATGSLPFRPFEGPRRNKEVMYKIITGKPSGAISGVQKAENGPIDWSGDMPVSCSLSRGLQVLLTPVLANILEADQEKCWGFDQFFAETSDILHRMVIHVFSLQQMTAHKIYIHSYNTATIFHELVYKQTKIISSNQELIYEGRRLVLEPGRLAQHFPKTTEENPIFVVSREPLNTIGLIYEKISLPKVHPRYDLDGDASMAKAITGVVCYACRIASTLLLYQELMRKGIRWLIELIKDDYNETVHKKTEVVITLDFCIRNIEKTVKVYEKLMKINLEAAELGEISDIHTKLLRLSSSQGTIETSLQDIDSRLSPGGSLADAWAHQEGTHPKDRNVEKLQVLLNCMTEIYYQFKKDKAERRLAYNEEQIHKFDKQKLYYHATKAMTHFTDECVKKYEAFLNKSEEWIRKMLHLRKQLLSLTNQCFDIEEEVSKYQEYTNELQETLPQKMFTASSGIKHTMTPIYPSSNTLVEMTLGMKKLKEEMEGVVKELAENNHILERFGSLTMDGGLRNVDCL

[27] = biological target: Leukocyte tyrosine kinase receptor (Homo sapiens, UniProt P29376); assay: Navigating the Kinome. Panel member name: LTK
Leukocyte tyrosine kinase receptor, sequence (P29376 whole entry): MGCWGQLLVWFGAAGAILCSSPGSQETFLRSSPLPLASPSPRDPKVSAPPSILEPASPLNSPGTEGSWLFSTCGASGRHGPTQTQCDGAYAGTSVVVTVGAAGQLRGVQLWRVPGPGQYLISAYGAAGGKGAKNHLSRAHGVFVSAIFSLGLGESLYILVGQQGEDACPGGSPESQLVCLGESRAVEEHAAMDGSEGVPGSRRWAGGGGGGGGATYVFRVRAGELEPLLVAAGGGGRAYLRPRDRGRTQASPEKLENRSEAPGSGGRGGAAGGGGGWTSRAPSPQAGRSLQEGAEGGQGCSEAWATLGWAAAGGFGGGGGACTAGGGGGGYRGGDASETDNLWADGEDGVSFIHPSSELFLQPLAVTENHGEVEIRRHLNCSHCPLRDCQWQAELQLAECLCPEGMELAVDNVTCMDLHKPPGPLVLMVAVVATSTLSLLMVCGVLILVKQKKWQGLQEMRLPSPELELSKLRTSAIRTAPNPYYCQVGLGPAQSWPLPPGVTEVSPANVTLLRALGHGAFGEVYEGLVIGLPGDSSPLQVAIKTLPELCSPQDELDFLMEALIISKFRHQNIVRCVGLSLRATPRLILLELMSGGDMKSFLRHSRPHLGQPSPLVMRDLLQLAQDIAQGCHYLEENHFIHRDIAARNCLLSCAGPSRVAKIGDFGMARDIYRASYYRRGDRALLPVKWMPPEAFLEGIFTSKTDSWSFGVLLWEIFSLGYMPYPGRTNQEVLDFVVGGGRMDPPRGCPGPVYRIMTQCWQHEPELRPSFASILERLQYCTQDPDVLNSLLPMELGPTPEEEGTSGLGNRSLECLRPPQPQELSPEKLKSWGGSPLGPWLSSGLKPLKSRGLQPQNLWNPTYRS

[28] = biological target: 5'-AMP-activated protein kinase catalytic subunit alpha-1 (Homo sapiens, UniProt Q13131)
[29] = biological target: Serine/threonine-protein kinase pim-1 (Homo sapiens, UniProt P11309)
[30] = biological target: Mitogen-activated protein kinase 14 (Homo sapiens, UniProt Q16539);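 note: part of a kinome-wide panel, MAPK14 entry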
Mitogen-activated protein kinase 14, sequence (Q16539 whole entry): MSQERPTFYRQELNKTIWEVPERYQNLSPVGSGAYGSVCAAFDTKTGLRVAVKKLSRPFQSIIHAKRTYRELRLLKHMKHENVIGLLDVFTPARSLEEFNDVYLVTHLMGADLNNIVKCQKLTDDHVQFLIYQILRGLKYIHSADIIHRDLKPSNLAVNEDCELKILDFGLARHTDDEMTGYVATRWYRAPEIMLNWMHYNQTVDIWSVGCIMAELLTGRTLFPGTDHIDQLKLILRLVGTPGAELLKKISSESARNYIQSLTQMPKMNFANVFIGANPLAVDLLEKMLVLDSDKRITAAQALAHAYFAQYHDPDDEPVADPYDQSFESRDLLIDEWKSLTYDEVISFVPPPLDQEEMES

Activin receptor type-1 = Activin receptor type-1 (Homo sapiens, UniProt Q04771); assay: Navigating the Kinome. Panel member name: ACVR1
[31] = biological target: Calcium/calmodulin-dependent protein kinase type II subunit alpha (Homo sapiens, UniProt Q9UQM7); assay: Navigating the Kinome. Panel member name: CAMK2A
[32] = biological target: Death-associated protein kinase 3 (Homo sapiens, UniProt O43293);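 note: measured as one member of a kinome-wide profiling panel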
Death-associated protein kinase 3, sequence (O43293 whole entry): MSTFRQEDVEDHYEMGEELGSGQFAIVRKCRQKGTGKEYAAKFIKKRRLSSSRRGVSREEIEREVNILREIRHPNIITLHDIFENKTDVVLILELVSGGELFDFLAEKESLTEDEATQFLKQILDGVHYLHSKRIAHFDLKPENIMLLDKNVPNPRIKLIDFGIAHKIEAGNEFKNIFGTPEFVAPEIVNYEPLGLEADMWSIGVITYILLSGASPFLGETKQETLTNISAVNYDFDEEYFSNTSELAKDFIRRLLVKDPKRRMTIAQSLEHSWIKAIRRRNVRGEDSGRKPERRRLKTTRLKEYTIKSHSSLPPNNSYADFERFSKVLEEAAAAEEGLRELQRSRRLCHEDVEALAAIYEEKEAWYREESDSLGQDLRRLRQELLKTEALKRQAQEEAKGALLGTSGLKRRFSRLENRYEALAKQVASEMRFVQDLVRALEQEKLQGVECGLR

[33] = biological target: Rho-associated protein kinase 1 (Homo sapiens, UniProt Q13464);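 note: measured within a broad kinome-wide panel profiling many kinases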
[34] = biological target: Glycogen synthase kinase-3 alpha (Homo sapiens, UniProt P49840);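 note: GSK3A result taken from a broad kinome-wide kinase panel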
[35] = biological target: Dual specificity tyrosine-phosphorylation-regulated kinase 1B (Homo sapiens, UniProt Q9Y463); assay: Navigating the Kinome. Panel member name: DYRK1B
[36] = biological target: G protein-coupled receptor kinase 5 (Homo sapiens, UniProt P34947); assay: Navigating the Kinome. Panel member name: GPRK5
[37] = biological target: Serine/threonine-protein kinase Nek2 (Homo sapiens, UniProt P51955)
[38] = biological target: Tyrosine-protein kinase JAK3 (Homo sapiens, UniProt P52333)
[39] = biological target: Casein kinase I isoform alpha (Homo sapiens, UniProt P48729)
[40] = biological target: Cyclin-dependent kinase 5 (Homo sapiens, UniProt Q00535);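 note: CDK5 measured as one member of a kinase profiling panel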
[41] = biological target: Dual specificity mitogen-activated protein kinase kinase 2 (Homo sapiens, UniProt P36507); assay: Navigating the Kinome. Panel member name: MAP2K2
[42] = biological target: Serine/threonine-protein kinase D3 (Homo sapiens, UniProt O94806);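 note: determined within a kinase panel screen, with PRKCN as the panel member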
[43] = biological target: Cyclin-dependent kinase 9 (Homo sapiens, UniProt P50750);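 note: value from the CDK9 entry of a kinome-spanning kinase panel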
[44] = biological target: Cyclin-dependent kinase 7 (Homo sapiens, UniProt P50613);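 note: value comes from a kinome-wide kinase profiling panel in which CDK7 is one member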
Cyclin-dependent kinase 7, sequence (P50613 whole entry): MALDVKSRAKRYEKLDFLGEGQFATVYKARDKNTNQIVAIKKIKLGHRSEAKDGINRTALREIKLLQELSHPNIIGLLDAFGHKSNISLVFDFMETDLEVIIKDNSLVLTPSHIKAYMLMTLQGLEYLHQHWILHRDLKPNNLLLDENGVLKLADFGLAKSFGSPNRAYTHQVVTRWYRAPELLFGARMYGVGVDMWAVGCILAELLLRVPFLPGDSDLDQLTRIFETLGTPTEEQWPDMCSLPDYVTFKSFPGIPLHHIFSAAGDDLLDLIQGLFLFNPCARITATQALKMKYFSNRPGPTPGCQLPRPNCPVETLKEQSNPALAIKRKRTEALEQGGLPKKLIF

[45] = biological target: Serine/threonine-protein kinase PAK 4 (Homo sapiens, UniProt O96013);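 note: value obtained within a kinome profiling panel in which PAK4 was one of the panel members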
[46] = biological target: Leucine-rich repeat serine/threonine-protein kinase 2 (Homo sapiens, UniProt Q5S007);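 note: value from a broad kinome-wide panel profiling study in which LRRK2 was one of the kinases tested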
Aurora kinase A = Aurora kinase A (Homo sapiens, UniProt O14965);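 note: value from the Navigating the Kinome kinase panel profiling, panel entry STK6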
[47] = biological target: Tyrosine-protein kinase JAK2 (Homo sapiens, UniProt O60674);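 note: JAK2 tested as one member of a kinase panel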
[48] = biological target: Inhibitor of nuclear factor kappa-B kinase subunit epsilon (Homo sapiens, UniProt Q14164); assay: Navigating the Kinome. Panel member name: IKBKE
[49] = biological target: Platelet-derived growth factor receptor alpha (Homo sapiens, UniProt P16234); assay: Navigating the Kinome. Panel member name: PDGFRA
[50] = biological target: Cyclin-dependent kinase 8 (Homo sapiens, UniProt P49336); assay: Navigating the Kinome. Panel member name: CDK8
Cyclin-dependent kinase 8, sequence (P49336 whole entry): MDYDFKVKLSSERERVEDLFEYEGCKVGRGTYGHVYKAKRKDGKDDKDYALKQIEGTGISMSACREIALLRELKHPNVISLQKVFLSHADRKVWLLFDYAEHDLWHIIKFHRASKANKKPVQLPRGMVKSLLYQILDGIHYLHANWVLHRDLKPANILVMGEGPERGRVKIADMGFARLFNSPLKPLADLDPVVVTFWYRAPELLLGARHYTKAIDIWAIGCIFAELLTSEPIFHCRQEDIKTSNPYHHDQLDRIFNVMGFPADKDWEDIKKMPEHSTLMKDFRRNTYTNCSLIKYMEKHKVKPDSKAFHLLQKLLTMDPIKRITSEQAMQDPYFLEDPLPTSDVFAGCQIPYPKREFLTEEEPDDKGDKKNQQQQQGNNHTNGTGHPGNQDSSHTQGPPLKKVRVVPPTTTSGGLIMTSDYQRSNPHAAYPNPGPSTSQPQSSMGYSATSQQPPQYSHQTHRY

[51] = biological target: cAMP-dependent protein kinase catalytic subunit alpha (Homo sapiens, UniProt P17612)
[52] = biological target: Dual specificity protein kinase CLK2 (Homo sapiens, UniProt P49760)
[53] = biological target: Dual specificity protein kinase CLK4 (Homo sapiens, UniProt Q9HAZ1)
[54] = biological target: Serine/threonine-protein kinase TAO1 (Homo sapiens, UniProt Q7L7X3)
[55] = biological target: T1, Neuropeptides B/W receptor type 1 (Homo sapiens, UniProt P48145); assay: GPR7 antagonist potency, late-stage follow-up, cell-based, fluorescence, dose response, set 5 (AID 588566)
T1 sequence (P48145 whole entry): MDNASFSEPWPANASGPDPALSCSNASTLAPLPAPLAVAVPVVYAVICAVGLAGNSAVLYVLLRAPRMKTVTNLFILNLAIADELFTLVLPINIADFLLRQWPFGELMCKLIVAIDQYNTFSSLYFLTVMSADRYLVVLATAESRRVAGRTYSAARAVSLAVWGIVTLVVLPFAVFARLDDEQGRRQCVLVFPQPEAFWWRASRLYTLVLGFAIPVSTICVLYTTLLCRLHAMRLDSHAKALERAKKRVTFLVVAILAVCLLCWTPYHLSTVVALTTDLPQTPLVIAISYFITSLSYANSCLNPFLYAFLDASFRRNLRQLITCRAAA

[56] = biological target: Melanin-concentrating hormone receptor 1 (Homo sapiens, UniProt Q99705); assay: Late-stage fluorescence-based counterscreen for antagonists of the G-protein coupled receptor 7 (GPR7): cell-based dose response assay to identify antagonists of the melanin-concentrating hormone receptor 1 (MCHR1) Set 5.
[57] = biological target: Multidrug resistance protein CDR2 (Candida albicans (strain SC5314 / ATCC MYA-2876) (Yeast), UniProt P78595); assay: CaCDR2 efflux pump inhibitors in yeast, dose response, S. cerevisiae AD1-8u, singleplex, Cherry Pick1 hits (AID 588604)

Ki [1]: > 6.31 µM (inactive) | Ki [2]: > 3.98 µM (inactive) | Ki [3]: > 2.51 µM (inactive) | Ki [4]: > 3.98 µM (inactive) | Ki [5]: > 3.16 µM (inactive) | Ki (Activated CDC42 kinase 1): > 3.98 µM (inactive) | Ki [6]: > 3.16 µM (inactive) | Ki [7]: > 3.98 µM (inactive) | Ki [8]: > 3.16 µM (inactive) | Ki [9]: > 3.16 µM (inactive) | Ki [10]: > 2.51 µM (inactive) | Ki [11]: > 2.51 µM (inactive) | Ki [12]: > 3.98 µM (inactive) | Ki [13]: > 2.51 µM (inactive) | Ki [14]: > 2.51 µM (inactive) | Ki [15]: > 5.01 µM (inactive) | Ki [16]: > 2.51 µM (inactive) | Ki [17]: > 3.98 µM (inactive) | Ki [18]: > 6.31 µM (inactive) | Ki [19]: > 3.16 µM (inactive) | Ki (Aurora kinase B): > 3.98 µM (inactive) | Ki [20]: > 3.16 µM (inactive) | Ki (LIM domain kinase 1): > 3.16 µM (inactive) | Ki [21]: > 5.01 µM (inactive) | Ki [22]: 1.58 µM (active) | Ki [23]: 2.51 µM (active) | Ki [24]: > 2.51 µM (inactive) | Ki [25]: > 3.98 µM (inactive) | Ki [26]: > 3.16 µM (inactive) | Ki [27]: > 2.51 µM (inactive) | Ki [28]: > 3.16 µM (inactive) | Ki [29]: > 6.31 µM (inactive) | Ki [30]: > 3.98 µM (inactive) | Ki (Activin receptor type-1): > 3.98 µM (inactive) | Ki [31]: > 3.98 µM (inactive) | Ki [33]: > 3.98 µM (inactive) | Ki [34]: 1.26 µM (active) | Ki [35]: 0.398 µM (active) | Ki [36]: > 3.98 µM (inactive) | Ki [37]: > 3.16 µM (inactive) | Ki [38]: > 5.01 µM (inactive) | Ki [39]: > 3.98 µM (inactive) | Ki [40]: 0.126 µM (active) | Ki [41]: > 3.98 µM (inactive) | Ki [42]: > 3.98 µM (inactive) | Ki [43]: 0.1 µM (active) | Ki [44]: > 3.98 µM (inactive) | Ki [45]: > 5.01 µM (inactive) | Ki [46]: > 2.51 µM (inactive) | Ki (Aurora kinase A): > 1.58 µM (inactive) | Ki [47]: > 2.51 µM (inactive) | Ki [48]: > 3.16 µM (inactive) | Ki [49]: > 2.51 µM (inactive) | Ki [50]: > 3.98 µM (inactive) | Ki [51]: > 1.26 µM (inactive) | Ki [52]: 3.16 µM (active) | Ki [53]: 0.316 µM (active) | Ki [54]: 5.01 µM (active)
Compound: COc1ccccc1CNC(=N)Nc1nccc(-c2cccs2)n1
Ki [32]: > 5.01 µM (inactive)

IC50 [55]: 6.18 µM (active) | IC50 [56]: 5.86 µM (active)
Compound: COc1ccc([S+]([O-])c2c(Cl)cnn(Cc3cccc4ccccc34)c2=O)cc1 (configuration not stated)

Compound: O=C(/C=C/c1ccccc1[N+](=O)[O-])NCCc1ccc(F)cc1
EC50 [57]: 25.8 µM (active)
